Source: US8623859B2, “Bradykinin B1 antagonists” (Evotec AG, priority 2008, dated 2014)
Counter-ions that a name gives are not always drawn.

Target: T1, human B1 (Homo sapiens, UniProt P46663)
T1 construct: host or cells: CHO-K1
T1 sequence (P46663 1-353): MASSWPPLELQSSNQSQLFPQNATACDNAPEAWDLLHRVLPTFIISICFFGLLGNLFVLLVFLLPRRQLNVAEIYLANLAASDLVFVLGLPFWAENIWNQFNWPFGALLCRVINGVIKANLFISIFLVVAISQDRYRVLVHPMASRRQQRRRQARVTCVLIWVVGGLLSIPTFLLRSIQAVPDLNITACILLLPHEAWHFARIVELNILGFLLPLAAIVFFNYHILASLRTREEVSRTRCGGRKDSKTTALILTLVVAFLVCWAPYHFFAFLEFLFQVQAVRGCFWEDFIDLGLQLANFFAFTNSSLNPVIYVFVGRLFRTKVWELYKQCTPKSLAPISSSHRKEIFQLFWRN
Test: Calcium flux assay for Bradykinin B1 antagonist, CHO-K1 cell line expressing human B1
Format: cell-based
Conditions: CHO-K1 cells expressing human B1, agonist Lys-(Des-Arg)-Bradykinin, read-out: Potency (IC50 value against human B1)
Summary of the method: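 CHO-K1 cells expressing human B1, loaded with 5 μM Fluo-4AM (2 h, 37° C) in HEPES buffer pH 7.4 with probenecid and 0.1% BSA, were preincubated 30 min at 25° C with compound (8 concentrations, triplicate, 1% DMSO) before B1 agonist addition. Ca2+ fluorescence monitored at 538 nm; background-normalized integrated values plotted against log antagonist concentration.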

IC50 | Compound
100 to 1000 nM | COc1cc(C)c(S(=O)(=O)N(Cc2cc(C(=O)NCc3ccc(CN4CCCC4)c(F)c3)co2)C2CC2)c(C)c1 [Ex 154, 5-({Cyclopropyl[(4-methoxy-2,6-dimethylphenyl)sulfonyl]amino}methyl)-N-[3-fluoro-4-(pyrrolidin-1-ylmethyl)benzyl]furan-3-carboxamide trifluoroacetate]
10 to 100 nM | COc1cc(C)c(S(=O)(=O)N(C)Cc2cc(C(=O)N(C)Cc3cc(CN4CCCC4)ccc3F)co2)c(C)c1 [Ex 156, N-[2-Fluoro-5-(pyrrolidin-1-ylmethyl)benzyl]-5-({[(4-methoxy-2,6-dimethylphenyl)sulfonyl](methyl)amino}methyl)-N-methylfuran-3-carboxamide trifluoroacetate]
10 to 100 nM | COc1cc(C)c(S(=O)(=O)N(C)Cc2cc(C(=O)N(C)Cc3cc(F)cc(CN4CCCC4)c3)co2)c(C)c1 [Ex 158, N-[3-Fluoro-5-(pyrrolidin-1-ylmethyl)benzyl]-5-({[(4-methoxy-2,6-dimethylphenyl)sulfonyl](methyl)amino}methyl)-N-methylfuran-3-carboxamide trifluoroacetate]
100 to 1000 nM | COc1cc(C)c(S(=O)(=O)N(C)Cc2nc(C(=O)N(C)Cc3ccc(C[N+]4([O-])CCCC4)cc3)co2)c(C)c1 [Ex 159, 2-({[(4-Methoxy-2,6-dimethylphenyl)sulfonyl](methyl)amino}methyl)-N-methyl-N-{4-[(1-oxidopyrrolidin-1-yl)methyl]benzyl}-1,3-oxazole-4-carboxamide trifluoroacetate]
100 to 1000 nM | COc1cc(C)c(S(=O)(=O)N(Cc2nc(C(=O)NCCC3CCCNC3)co2)C2CC2)c(C)c1 (stereo not shown) [Ex 159a, 2-({Cyclopropyl[(4-methoxy-2,6-dimethylphenyl)sulfonyl]amino}methyl)-N-(2-piperidin-3-ylethyl)-1,3-oxazole-4-carboxamide]
10 to 100 nM | COc1cc(C)c(S(=O)(=O)N(Cc2nc(C(=O)N(C)Cc3csc(CN4CCCC4)n3)co2)C2CC2)c(C)c1 [Ex 160, 2-({Cyclopropyl[(4-methoxy-2,6-dimethylphenyl)sulfonyl]amino}methyl)-N-methyl-N-{[2-(pyrrolidin-1-ylmethyl)-1,3-thiazol-4-yl]methyl}-1,3-oxazole-4-carboxamide]
100 to 1000 nM | COc1cc(C)c(S(=O)(=O)N(Cc2nc(C(=O)N3CCN(c4ccncc4)CC3)co2)C2CC2)c(C)c1 [Ex 161, N-Cyclopropyl-4-methoxy-2,6-dimethyl-N-({4-[(4-pyridin-4-ylpiperazin-1-yl)carbonyl]-1,3-oxazol-2-yl}methyl)benzenesulfonamide trifluoroacetate]
< 10 nM | COc1cc(C)c(S(=O)(=O)N(Cc2nc(C(=O)N3CCN(Cc4ccncc4)CC3)co2)C2CC2)c(C)c1 [Ex 162, N-Cyclopropyl-4-methoxy-2,6-dimethyl-N-[(4-{[4-(pyridin-4-ylmethyl)piperazin-1-yl]carbonyl}-1,3-oxazol-2-yl)methyl]benzenesulfonamide trifluoroacetate]
100 to 1000 nM | COc1cc(C)c(S(=O)(=O)N(C)Cc2nc(C(=O)N3CCN(CCN4CCCC4)CC3)co2)c(C)c1 [Ex 164, 4-Methoxy-N,2,6-trimethyl-N-[(4-{[4-(2-pyrrolidin-1-ylethyl)piperazin-1-yl]carbonyl}-1,3-oxazol-2-yl)methyl]benzenesulfonamide]
10 to 100 nM | COc1cc(C)c(S(=O)(=O)N(C)Cc2nc(C(=O)N(C)Cc3ccc(CN4CCCC(OC)C4)cc3)co2)c(C)c1 (stereo not shown) [Ex 168, 2-({[(4-Methoxy-2,6-dimethylphenyl)sulfonyl](methyl)amino}methyl)-N-{4-[(3-methoxypiperidin-1-yl)methyl]benzyl}-N-methyl-1,3-oxazole-4-carboxamide]
< 10 nM | COc1cc(C)c(S(=O)(=O)N(C)Cc2nc(C(=O)N3CCN(CCCN4CCCC4)CC3)co2)c(C)c1 [Ex 174, 4-Methoxy-N,2,6-trimethyl-N-[(4-{[4-(3-pyrrolidin-1-ylpropyl)piperazin-1-yl]carbonyl}-1,3-oxazol-2-yl)methyl]benzenesulfonamide]
< 10 nM | COc1cc(C)c(S(=O)(=O)N(C)Cc2nc(C(=O)N3CCN(CC4CCN(C)CC4)CC3)co2)c(C)c1 [Ex 175, 4-Methoxy-N,2,6-trimethyl-N-{[4-({4-[(1-methylpiperidin-4-yl)methyl]piperazin-1-yl}carbonyl)-1,3-oxazol-2-yl]methyl}benzenesulfonamide]

More lines, now with the values behind:

Compound | IC50
COc1cc(C)c(S(=O)(=O)N(Cc2cc(C(=O)NCc3cc(CN4CCCC4)ccc3F)co2)C2CC2)c(C)c1 [Ex 153, 5-({Cyclopropyl[(4-methoxy-2,6-dimethylphenyl)sulfonyl]amino}methyl)-N-[2-fluoro-5-(pyrrolidin-1-ylmethyl)benzyl]furan-3-carboxamide trifluoroacetate] | 100 to 1000 nM
COc1cc(C)c(S(=O)(=O)N(C)Cc2cc(C(=O)NCc3cc(F)cc(CN4CCCC4)c3)co2)c(C)c1 [Ex 155, N-[3-Fluoro-5-(pyrrolidin-1-ylmethyl)benzyl]-5-({[(4-methoxy-2,6-dimethylphenyl)sulfonyl](methyl)amino}methyl)furan-3-carboxamide trifluoroacetate] | 10 to 100 nM
COc1cc(C)c(S(=O)(=O)N(C)Cc2cc(C(=O)N(C)Cc3ccc(CN4CCCC4)c(F)c3)co2)c(C)c1 [Ex 157, N-[3-Fluoro-4-(pyrrolidin-1-ylmethyl)benzyl]-5-({[(4-methoxy-2,6-dimethylphenyl)sulfonyl](methyl)amino}methyl)-N-methylfuran-3-carboxamide trifluoroacetate] | 10 to 100 nM
COc1cc(C)c(S(=O)(=O)N(Cc2nc(C(=O)N3CCN(Cc4cccnc4)CC3)co2)C2CC2)c(C)c1 [Ex 163, N-Cyclopropyl-4-methoxy-2,6-dimethyl-N-[(4-{[4-(pyridin-3-ylmethyl)piperazin-1-yl]carbonyl}-1,3-oxazol-2-yl)methyl]benzenesulfonamide trifluoroacetate] | < 10 nM
COc1cc(C)c(S(=O)(=O)N(Cc2nc(C(=O)N3CCN(C4CCN(C)CC4)CC3)co2)C2CC2)c(C)c1 [Ex 165, N-Cyclopropyl-4-methoxy-2,6-dimethyl-N-[(4-{[4-(1-methylpiperidin-4-yl)piperazin-1-yl]carbonyl}-1,3-oxazol-2-yl)methyl]benzenesulfonamide] | < 10 nM
COc1cc(C)c(S(=O)(=O)N(C)Cc2nc(C(=O)N(C)Cc3ccc(CN4CCC(O)CC4)cc3)co2)c(C)c1 [Ex 166, N-{4-[(4-Hydroxypiperidin-1-yl)methyl]benzyl}-2-({[(4-methoxy-2,6-dimethylphenyl)sulfonyl](methyl)amino}methyl)-N-methyl-1,3-oxazole-4-carboxamide] | < 10 nM
COc1cc(C)c(S(=O)(=O)N(C)Cc2nc(C(=O)N(C)Cc3ccc(CN4CCC(OC)CC4)cc3)co2)c(C)c1 [Ex 167, 2-({[(4-Methoxy-2,6-dimethylphenyl)sulfonyl](methyl)amino}methyl)-N-{4-[(4-methoxypiperidin-1-yl)methyl]benzyl}-N-methyl-1,3-oxazole-4-carboxamide] | < 10 nM
COc1cc(C)c(S(=O)(=O)N(C)Cc2nc(C(=O)N(C)Cc3ccc(CN4CCC(OC)C4)cc3)co2)c(C)c1 (stereo not shown) [Ex 169, 2-({[(4-Methoxy-2,6-dimethylphenyl)sulfonyl](methyl)amino}methyl)-N-{4-[(3-methoxypyrrolidin-1-yl)methyl]benzyl}-N-methyl-1,3-oxazole-4-carboxamide] | < 10 nM
COc1cc(C)c(S(=O)(=O)N(C)Cc2nc(C(=O)N(C)Cc3ccc(CN4CCC(NC(C)=O)C4)cc3)co2)c(C)c1 (stereo not shown) [Ex 170, N-(4-{[3-(Acetylamino)pyrrolidin-1-yl]methyl}benzyl)-2-({[(4-methoxy-2,6-dimethylphenyl)sulfonyl](methyl)amino}methyl)-N-methyl-1,3-oxazole-4-carboxamide] | 10 to 100 nM
COc1cc(C)c(S(=O)(=O)N(C)Cc2nc(C(=O)N(C)Cc3ccc(CN4CCC(C(=O)N(C)C)C4)cc3)co2)c(C)c1 (stereo not shown) [Ex 171, N-(4-{[3-(Dimethylcarbamoyl)pyrrolidin-1-yl]methyl}benzyl)-2-({[(4-methoxy-2,6-dimethylphenyl)sulfonyl](methyl)amino}methyl)-N-methyl-1,3-oxazole-4-carboxamide] | < 10 nM
COc1cc(C)c(S(=O)(=O)N(C)Cc2nc(C(=O)N(C)Cc3ccc(CN4CC(O)C4)cc3)co2)c(C)c1 [Ex 172, N-{4-[(3-Hydroxyazetidin-1-yl)methyl]benzyl}-2-({[(4-methoxy-2,6-dimethylphenyl)sulfonyl](methyl)amino}methyl)-N-methyl-1,3-oxazole-4-carboxamide] | 10 to 100 nM
COc1cc(C)c(S(=O)(=O)N(C)Cc2nc(C(=O)N(C)Cc3ccc(CN4CC(OC)C4)cc3)co2)c(C)c1 [Ex 173, N-{4-[(3-Methoxyazetidin-1-yl)methyl]benzyl}-2-({[(4-methoxy-2,6-dimethylphenyl)sulfonyl](methyl)amino}methyl)-N-methyl-1,3-oxazole-4-carboxamide] | 10 to 100 nM
COc1cc(C)c(S(=O)(=O)N(Cc2nc(C(=O)N(C)Cc3ccc(CN4CCC(O)C4)cc3)co2)C2CC2)c(C)c1 (stereo not shown) [Ex 176, 2-({Cyclopropyl[(4-methoxy-2,6-dimethylphenyl)sulfonyl]amino}methyl)-N-{4-[(3-hydroxypyrrolidin-1-yl)methyl]benzyl}-N-methyl-1,3-oxazole-4-carboxamide] | < 10 nM
